# Like-named read-outs stand apart in the source and are kept apart here.
# Legend:
# GSK3β(h) = biological target: T1, GSK3β(h) (Homo sapiens, UniProt P49841); experiment: Eurofins KinaseProfiler kinase selectivity; assay type: biochemical; conditions: compound at 1 μM; ATP 15 μM; read-out: Residual enzyme activity
# T1 construct: purchased Eurofins (KinaseProfiler platform)
# Protocol: (§1) This experiment aims to study the activity and selectivity of the compounds towards kinases selected from the Eurofins KinaseProfiler™ platform. The compounds against each selected kinase were tested using the KinaseProfiler™ experimental procedure of Eurofins standard, which follows the relevant standard operating procedures. Protein kinases (except ATM(h) and DNA-PK(h)) were tested by […], while lipid kinases, ATM(h), ATR/ATRIP(h) and DNA-PK(h) were tested by HRTF®.
# (§2) Compound powders were prepared into 10 mM mother liquor through 100% DMSO solution and then diluted to 50× liquid.
# (§3) An appropriate amount of 50× storage solution of the test compound was taken into the test wells, and then the kinase and substrate were added and mixed well. A certain concentration of ATP was added to start the reaction.
# (§4) Data were processed using custom in-house analysis software.
# (§5) The kinase off-target study in vitro of compound 5 of the present disclosure was carried out to evaluate the inhibitory activity against 15 common kinases at a concentration of 1 μM of the drug, and the results are as shown in Table 6.
# CDK9/cyclin T1(h) = biological target: T2, CDK9/cyclin T1(h) (Homo sapiens, UniProt P50750); experiment: Eurofins KinaseProfiler kinase selectivity; assay type: biochemical; conditions: compound at 1 μM; ATP 45 μM; read-out: Residual enzyme activity
# T2 construct: purchased Eurofins (KinaseProfiler platform)
# Protocol: as §1, §2, §3, §4, §5
# LOK(h) = biological target: T3, LOK(h) (Homo sapiens, UniProt O94804); experiment: Eurofins KinaseProfiler kinase selectivity; assay type: biochemical; conditions: compound at 1 μM; ATP 120 μM; read-out: Residual enzyme activity
# T3 construct: purchased Eurofins (KinaseProfiler platform)
# Protocol: as §1, §2, §3, §4, §5
# JAK2(h) = biological target: T4, JAK2(h) (Homo sapiens, UniProt O60674); experiment: Eurofins KinaseProfiler kinase selectivity; assay type: biochemical; conditions: compound at 1 μM; ATP 45 μM; read-out: Residual enzyme activity
# T4 construct: purchased Eurofins (KinaseProfiler platform)
# Protocol: as §1, §2, §3, §4, §5
# Fyn(h) = biological target: T5, Fyn(h) (Homo sapiens, UniProt P06241); experiment: Eurofins KinaseProfiler kinase selectivity; assay type: biochemical; conditions: compound at 1 μM; ATP 70 μM; read-out: Residual enzyme activity
# T5 construct: purchased Eurofins (KinaseProfiler platform)
# Protocol: as §1, §2, §3, §4, §5
# Flt3(h) = biological target: T6, Flt3(h) (Homo sapiens, UniProt P36888); experiment: Eurofins KinaseProfiler kinase selectivity; assay type: biochemical; conditions: compound at 1 μM; ATP 200 μM; read-out: Residual enzyme activity
# T6 construct: purchased Eurofins (KinaseProfiler platform)
# Protocol: as §1, §2, §3, §4, §5
# Abl(h) = biological target: T7, Abl(h) (Homo sapiens, UniProt P00519); experiment: Eurofins KinaseProfiler kinase selectivity; assay type: biochemical; conditions: compound at 1 μM; ATP 45 μM; read-out: Residual enzyme activity
# T7 construct: purchased Eurofins (KinaseProfiler platform)
# Protocol: as §1, §2, §3, §4, §5
# CDK2/cyclinA(h) = biological target: T8, CDK2/cyclinA(h) (Homo sapiens, UniProt P24941); experiment: Eurofins KinaseProfiler kinase selectivity; assay type: biochemical; conditions: compound at 1 μM; ATP 45 μM; read-out: Residual enzyme activity
# T8 construct: purchased Eurofins (KinaseProfiler platform)
# Protocol: as §1, §2, §3, §4, §5
# CDK1/cyclinB(h) = biological target: T9, CDK1/cyclinB(h) (Homo sapiens, UniProt P06493); experiment: Eurofins KinaseProfiler kinase selectivity; assay type: biochemical; conditions: compound at 1 μM; ATP 45 μM; read-out: Residual enzyme activity
# T9 construct: purchased Eurofins (KinaseProfiler platform)
# Protocol: as §1, §2, §3, §4, §5
# TNIK(h) = biological target: T10, TNIK(h) (Homo sapiens, UniProt Q9UKE5); experiment: Eurofins KinaseProfiler kinase selectivity; assay type: biochemical; conditions: compound at 1 μM; ATP 70 μM; read-out: Residual enzyme activity
# T10 construct: purchased Eurofins (KinaseProfiler platform)
# Protocol: as §1, §2, §3, §4, §5
# Rsk1(h) = biological target: T11, Rsk1(h) (Homo sapiens, UniProt Q15418); experiment: Eurofins KinaseProfiler kinase selectivity; assay type: biochemical; conditions: compound at 1 μM; ATP 45 μM; read-out: Residual enzyme activity
# T11 construct: purchased Eurofins (KinaseProfiler platform)
# Protocol: as §1, §2, §3, §4, §5
# ALK(h) = biological target: T12, ALK(h) (Homo sapiens, UniProt Q9UM73); experiment: Eurofins KinaseProfiler kinase selectivity; assay type: biochemical; conditions: compound at 1 μM; ATP 200 μM; read-out: Residual enzyme activity
# T12 construct: purchased Eurofins (KinaseProfiler platform)
# Protocol: as §1, §2, §3, §4, §5
# MST1(h) = biological target: T13, MST1(h) (Homo sapiens, UniProt Q13043); experiment: Eurofins KinaseProfiler kinase selectivity; assay type: biochemical; conditions: compound at 1 μM; ATP 90 μM; read-out: Residual enzyme activity
# T13 construct: purchased Eurofins (KinaseProfiler platform)
# Protocol: as §1, §2, §3, §4, §5
# MLK1(h) = biological target: T14, MLK1(h) (Homo sapiens, UniProt P80192); experiment: Eurofins KinaseProfiler kinase selectivity; assay type: biochemical; conditions: compound at 1 μM; ATP 45 μM; read-out: Residual enzyme activity
# T14 construct: purchased Eurofins (KinaseProfiler platform)
# Protocol: as §1, §2, §3, §4, §5
# KDR(h) = biological target: T15, KDR(h) (Homo sapiens, UniProt P35968); experiment: Eurofins KinaseProfiler kinase selectivity; assay type: biochemical; conditions: compound at 1 μM; ATP 90 μM; read-out: Residual enzyme activity
# T15 construct: purchased Eurofins (KinaseProfiler platform)
# Protocol: as §1, §2, §3, §4, §5
# [1] = Pharmacokinetic evaluation in mice (IV and PO); assay type: in vivo, female Balb/c mice; conditions: for MRT last: read-out: MRT0-last
# Protocol: Experiment process: 0.04 mg/mL of a clarified solution of the test compound in 5% DMSO/10% Solutol solution/85% water was injected into female Balb/c mice (overnight fasting, 7-9 weeks of age) via tail vein, with dosage of 0.2 mg/kg. 0.1 mg/mL of the test compound in 5% DMSO/10% Solutol solution/0.2% Tween80/84.8% water was administered by gavage to female Balb/c mice (overnight fasting, 7-9 weeks of age), with dosage of 1 mg/kg. About 30 μL of blood was collected from the jugular vein at 0.0833, 0.25, 0.5, 1.0, 2.0, 4.0, 8.0, 10 and 24 h and from the tail vein at 0.25, 0.5, 1.0, 2.0, 4.0, 8.0 and 24 h after administration for both groups of animals, and were placed in anticoagulation tubes with EDTA-K2, and the blood was separated by centrifugation to obtain plasma. Plasma concentrations were detected by LC-MS/MS, and relevant pharmacokinetic parameters were calculated using WinNonlin™ Version 6.3 (Pharsight, Mountain View, CA) pharmacokinetic software with a non-compartmental model linear logarithmic trapezoid method.
# [2] = female, Balb/c, mouse, plasma, IV 0.2 mg/kg
# [3] = female, Balb/c, mouse, plasma, PO 1 mg/kg
# T12 sequence (Q9UM73 19-1620): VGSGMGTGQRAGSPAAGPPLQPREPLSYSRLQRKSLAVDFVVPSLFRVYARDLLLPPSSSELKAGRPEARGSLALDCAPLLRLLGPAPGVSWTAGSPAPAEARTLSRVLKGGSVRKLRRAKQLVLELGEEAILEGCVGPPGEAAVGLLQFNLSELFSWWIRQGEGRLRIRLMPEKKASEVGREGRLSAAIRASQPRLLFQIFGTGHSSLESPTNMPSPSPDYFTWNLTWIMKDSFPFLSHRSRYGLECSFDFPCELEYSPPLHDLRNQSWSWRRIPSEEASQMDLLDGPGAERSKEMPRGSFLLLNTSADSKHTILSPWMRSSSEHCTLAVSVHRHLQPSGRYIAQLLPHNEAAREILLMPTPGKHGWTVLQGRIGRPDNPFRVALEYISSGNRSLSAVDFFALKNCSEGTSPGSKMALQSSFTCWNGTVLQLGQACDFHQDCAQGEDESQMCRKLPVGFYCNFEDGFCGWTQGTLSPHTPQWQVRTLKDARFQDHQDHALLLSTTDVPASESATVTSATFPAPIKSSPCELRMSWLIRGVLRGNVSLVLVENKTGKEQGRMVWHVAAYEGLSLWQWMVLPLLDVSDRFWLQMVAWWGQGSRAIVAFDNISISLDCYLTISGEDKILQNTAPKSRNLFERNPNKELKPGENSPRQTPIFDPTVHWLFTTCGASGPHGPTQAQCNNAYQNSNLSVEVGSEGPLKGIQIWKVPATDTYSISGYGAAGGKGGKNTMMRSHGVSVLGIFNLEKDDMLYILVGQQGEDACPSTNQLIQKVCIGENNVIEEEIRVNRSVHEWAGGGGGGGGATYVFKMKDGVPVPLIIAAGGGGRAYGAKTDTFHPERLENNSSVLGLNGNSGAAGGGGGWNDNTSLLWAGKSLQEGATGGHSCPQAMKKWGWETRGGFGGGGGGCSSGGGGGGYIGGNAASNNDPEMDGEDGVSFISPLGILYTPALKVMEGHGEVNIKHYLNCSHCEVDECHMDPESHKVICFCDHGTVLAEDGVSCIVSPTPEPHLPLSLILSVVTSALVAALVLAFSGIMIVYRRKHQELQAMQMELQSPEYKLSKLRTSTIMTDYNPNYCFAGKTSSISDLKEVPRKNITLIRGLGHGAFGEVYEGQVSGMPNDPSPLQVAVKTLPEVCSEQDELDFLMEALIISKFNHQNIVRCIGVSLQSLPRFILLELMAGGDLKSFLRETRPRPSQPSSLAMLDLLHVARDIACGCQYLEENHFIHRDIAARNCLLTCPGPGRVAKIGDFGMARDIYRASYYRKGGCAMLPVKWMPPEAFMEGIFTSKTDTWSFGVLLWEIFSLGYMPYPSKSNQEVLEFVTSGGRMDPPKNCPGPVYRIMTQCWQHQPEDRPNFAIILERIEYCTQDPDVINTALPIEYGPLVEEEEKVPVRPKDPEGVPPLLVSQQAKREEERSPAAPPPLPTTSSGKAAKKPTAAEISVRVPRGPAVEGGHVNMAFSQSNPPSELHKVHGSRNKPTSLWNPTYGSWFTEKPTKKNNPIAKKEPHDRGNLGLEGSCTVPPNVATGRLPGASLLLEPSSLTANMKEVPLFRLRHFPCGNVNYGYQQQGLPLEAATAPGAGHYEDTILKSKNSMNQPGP
# T7 sequence (P00519 whole entry): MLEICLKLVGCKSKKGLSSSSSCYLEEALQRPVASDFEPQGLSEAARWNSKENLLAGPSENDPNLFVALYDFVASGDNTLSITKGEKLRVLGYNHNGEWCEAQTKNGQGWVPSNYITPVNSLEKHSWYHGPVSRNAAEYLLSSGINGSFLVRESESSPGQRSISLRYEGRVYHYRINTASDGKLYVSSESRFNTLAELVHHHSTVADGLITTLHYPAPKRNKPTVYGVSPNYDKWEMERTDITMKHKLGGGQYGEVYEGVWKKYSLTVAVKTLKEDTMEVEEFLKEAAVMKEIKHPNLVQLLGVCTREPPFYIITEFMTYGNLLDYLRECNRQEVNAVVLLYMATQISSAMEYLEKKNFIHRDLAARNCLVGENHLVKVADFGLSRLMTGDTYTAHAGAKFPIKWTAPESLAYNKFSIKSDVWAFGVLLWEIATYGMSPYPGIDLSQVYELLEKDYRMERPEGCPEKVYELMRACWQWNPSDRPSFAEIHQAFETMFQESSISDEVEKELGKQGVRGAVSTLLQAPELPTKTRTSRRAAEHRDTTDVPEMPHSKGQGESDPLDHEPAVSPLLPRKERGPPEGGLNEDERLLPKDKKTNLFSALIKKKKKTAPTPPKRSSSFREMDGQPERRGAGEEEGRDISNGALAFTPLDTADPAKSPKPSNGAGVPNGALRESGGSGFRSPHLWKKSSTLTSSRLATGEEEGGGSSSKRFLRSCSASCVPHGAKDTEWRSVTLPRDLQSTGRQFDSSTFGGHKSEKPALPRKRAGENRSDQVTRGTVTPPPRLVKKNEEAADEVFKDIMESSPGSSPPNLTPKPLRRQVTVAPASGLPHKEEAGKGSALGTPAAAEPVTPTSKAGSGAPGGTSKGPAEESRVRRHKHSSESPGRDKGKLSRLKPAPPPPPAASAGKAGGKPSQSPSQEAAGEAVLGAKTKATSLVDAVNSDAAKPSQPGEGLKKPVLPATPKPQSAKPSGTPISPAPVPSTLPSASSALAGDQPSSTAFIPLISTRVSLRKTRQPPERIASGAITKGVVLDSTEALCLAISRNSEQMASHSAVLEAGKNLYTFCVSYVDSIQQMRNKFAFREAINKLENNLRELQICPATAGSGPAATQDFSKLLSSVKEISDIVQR
# T9 sequence (P06493 whole entry): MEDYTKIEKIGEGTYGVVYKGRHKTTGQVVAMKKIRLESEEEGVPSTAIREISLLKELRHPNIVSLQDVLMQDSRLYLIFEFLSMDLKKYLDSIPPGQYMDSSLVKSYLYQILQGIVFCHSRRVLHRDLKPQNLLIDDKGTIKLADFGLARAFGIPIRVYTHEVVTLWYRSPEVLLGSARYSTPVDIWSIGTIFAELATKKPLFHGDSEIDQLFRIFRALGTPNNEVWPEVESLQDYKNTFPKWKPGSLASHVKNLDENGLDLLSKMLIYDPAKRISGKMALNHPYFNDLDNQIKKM
# T9 sequence (P14635 whole entry partner): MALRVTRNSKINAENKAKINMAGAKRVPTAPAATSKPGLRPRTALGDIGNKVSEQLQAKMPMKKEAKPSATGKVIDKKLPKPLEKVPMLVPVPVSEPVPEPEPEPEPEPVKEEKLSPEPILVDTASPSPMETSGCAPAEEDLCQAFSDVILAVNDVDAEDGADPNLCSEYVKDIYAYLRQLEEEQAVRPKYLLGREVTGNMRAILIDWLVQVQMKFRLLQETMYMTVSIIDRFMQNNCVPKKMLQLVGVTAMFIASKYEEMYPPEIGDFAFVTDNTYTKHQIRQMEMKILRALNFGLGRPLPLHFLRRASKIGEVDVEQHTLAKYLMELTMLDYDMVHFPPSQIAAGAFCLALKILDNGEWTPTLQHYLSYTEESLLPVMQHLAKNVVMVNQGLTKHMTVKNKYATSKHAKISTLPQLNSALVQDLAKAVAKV
# T5 sequence (P06241 whole entry): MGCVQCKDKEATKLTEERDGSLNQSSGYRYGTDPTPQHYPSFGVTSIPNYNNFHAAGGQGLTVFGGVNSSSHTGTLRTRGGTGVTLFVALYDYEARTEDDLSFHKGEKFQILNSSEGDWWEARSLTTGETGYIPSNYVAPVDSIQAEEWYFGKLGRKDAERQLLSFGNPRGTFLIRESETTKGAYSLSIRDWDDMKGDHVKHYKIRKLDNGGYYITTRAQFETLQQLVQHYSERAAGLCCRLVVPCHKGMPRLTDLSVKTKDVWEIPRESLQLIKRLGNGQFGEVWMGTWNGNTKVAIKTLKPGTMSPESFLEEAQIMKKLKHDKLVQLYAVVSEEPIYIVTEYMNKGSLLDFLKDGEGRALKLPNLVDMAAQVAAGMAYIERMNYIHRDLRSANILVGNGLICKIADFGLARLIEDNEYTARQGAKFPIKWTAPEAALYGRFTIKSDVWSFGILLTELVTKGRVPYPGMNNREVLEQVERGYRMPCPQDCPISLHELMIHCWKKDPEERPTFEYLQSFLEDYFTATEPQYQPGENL
# T3 sequence (O94804 whole entry): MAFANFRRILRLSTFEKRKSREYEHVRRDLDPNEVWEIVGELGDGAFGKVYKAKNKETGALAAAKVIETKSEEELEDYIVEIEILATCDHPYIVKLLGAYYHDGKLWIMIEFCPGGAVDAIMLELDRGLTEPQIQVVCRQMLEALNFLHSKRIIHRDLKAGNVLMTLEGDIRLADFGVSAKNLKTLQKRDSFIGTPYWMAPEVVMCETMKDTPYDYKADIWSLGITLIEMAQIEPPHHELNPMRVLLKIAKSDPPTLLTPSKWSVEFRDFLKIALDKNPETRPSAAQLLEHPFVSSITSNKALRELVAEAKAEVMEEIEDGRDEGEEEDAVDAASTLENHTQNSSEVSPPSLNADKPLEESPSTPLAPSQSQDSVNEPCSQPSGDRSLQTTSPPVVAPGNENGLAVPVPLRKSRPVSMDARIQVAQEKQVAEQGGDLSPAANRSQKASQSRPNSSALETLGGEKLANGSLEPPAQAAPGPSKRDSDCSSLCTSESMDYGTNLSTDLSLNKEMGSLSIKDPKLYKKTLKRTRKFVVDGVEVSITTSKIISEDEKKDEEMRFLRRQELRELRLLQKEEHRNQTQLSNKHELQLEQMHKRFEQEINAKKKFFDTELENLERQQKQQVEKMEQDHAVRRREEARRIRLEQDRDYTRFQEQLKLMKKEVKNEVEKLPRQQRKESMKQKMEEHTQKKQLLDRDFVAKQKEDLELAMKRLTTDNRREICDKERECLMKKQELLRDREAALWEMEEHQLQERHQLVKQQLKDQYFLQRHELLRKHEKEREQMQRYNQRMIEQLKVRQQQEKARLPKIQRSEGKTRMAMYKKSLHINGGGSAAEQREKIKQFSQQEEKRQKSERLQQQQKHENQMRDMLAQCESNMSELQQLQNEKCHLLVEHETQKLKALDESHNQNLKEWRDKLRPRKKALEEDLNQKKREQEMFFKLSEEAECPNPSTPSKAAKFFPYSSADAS
structure (smiles),measurement,setting,value
CCn1c(CO)nn(-c2cc(O[C@@H](C)C(F)(F)F)c(/C(F)=C/c3ncccc3Cl)cc2F)c1=O [Compound 5],remaining activity at 1 µM,GSK3β(h),126%
same,remaining activity at 1 µM,CDK9/cyclin T1(h),95%
same,remaining activity at 1 µM,LOK(h),108%
same,remaining activity at 1 µM,JAK2(h),81%
same,remaining activity at 1 µM,Fyn(h),121%
same,remaining activity at 1 µM,Flt3(h),84%
same,remaining activity at 1 µM,Abl(h),88%
same,remaining activity at 1 µM,CDK2/cyclinA(h),72%
same,remaining activity at 1 µM,CDK1/cyclinB(h),91%
same,remaining activity at 1 µM,TNIK(h),84%
same,remaining activity at 1 µM,Rsk1(h),88%
same,remaining activity at 1 µM,ALK(h),94%
same,remaining activity at 1 µM,MST1(h),96%
same,remaining activity at 1 µM,MLK1(h),111%
same,remaining activity at 1 µM,KDR(h),90%
same,Tlast,[1]; IV 0.2 mg/kg,24.0 h
same,F,[1]; PO 1 mg/kg,95.8%
same,Tlast,[1]; PO 1 mg/kg,24.0 h
same,AUC(0-inf),[1]; [2],1.51 µM·h
same,AUC(0-t),[1]; [2],1.43 µM·h
same,clearance,[1]; [2],4.38 mL/min/kg
same,half-life,[1]; [2],5.83 h
same,MRT last,[1]; [2],6.24 h
same,Vd,"[1]; female, Balb/c, mouse, plasma, IV 0.2 mg/kg, read-out: VdSS",2.02 L/kg
same,AUC(0-inf),[1]; [3],7.21 µM·h
same,AUC(0-t),[1]; [3],6.87 µM·h
same,Tmax,[1]; [3],2 h
same,half-life,[1]; [3],5.36 h
same,MRT last,[1]; [3],6.99 h
same,C0,"[1]; female, Balb/c, mouse, IV 0.2 mg/kg, plasma",354 nM
same,Cmax,"[1]; female, Balb/c, mouse, PO 1 mg/kg, plasma",794 nM

# Reference: patent publication US12606540B2, “Triazolone compound” (MEDSHINE DISCOVERY INC., priority 2020, dated 2026)
